Publication PMC10614203, “Synthesis, Structure–Activity Relationships, Radiofluorination, and Biological Evaluation of [^18F]RM365, a Novel Radioligand for Imaging the Human Cannabinoid Receptor Type 2 (CB2R) in the Brain with PET” (Journal of Medicinal Chemistry, 2023)
Read-outs that look alike come from different tables or passages of the source.

Biological target: T1, hCB2R(D80N) (Homo sapiens, UniProt P34972, D80N)
T1 construct: expressed in transfected cells; host or cells: neurons of the right striatum of male Wistar rats, transduced in vivo with the AAV2/7-CaMKII0.4-intron-hCB2R(D80N) vector
Type: in vivo
Settings: for reduction of the normalized AUC between 20 and 60 min p.i.: GW405833 i.v. 20 min after radioligand
Source text: In a proof-of-concept study, the specific binding to the human CB2R and the ability to cross the blood–brain barrier of [^18F]RM365 in vivo was investigated by PET imaging experiments using an established rat model with a local overexpression of hCB2R(D80N) in the right striatum (target region).[32],[66] Exemplary images of the averaged time frames of the PET study, as well as the TACs of the target region and both reference regions on the contralateral site and the cerebellum, are shown in Figure 10. […] However, the TAC peak value was four to five times lower in the reference regions, which was reflected by the seven to eight times lower accumulated activity over time expressed as the area under the curve (AUC) of [^18F]RM365 (Table 3). The high signal-to-background ratio is reflected by a SUVr of 15 ± 5 and 20 ± 5 for the target region-to-contralateral and -cerebellum ratios, respectively, at 60 min p.i. […] Additionally, we investigated the reversibility of the binding toward the human CB2R receptor in vivo in displacement studies by administering the CB2R-specific agonist GW405833 into the tail vein 20 min after the radioligand injection into the hCB2R(D80N)-overexpressing rat model (Figure 10B, Table 3). […] The signal in the contralateral side (p-value = 0.1621, two-way ANOVA) and in the cerebellum (p-value = 0.6177, two-way ANOVA) was not affected by the treatment over time with GW405833 (Figure S6), underlining the eligibility of these reference regions.
In vivo biodistribution studies of [^18F]RM365 were performed in female CD-1 mice (n = 4, 31 ± 3 g) and female Wistar rats (n = 4, 150 ± 11 g). For the uptake studies into the brain, male Wistar rats carrying the stereotactically injected AAV2/7-CaMKII0.4-intron-hCB2R(D80N) (right striatum) and AAV2/7-CaMKII0.4-intron-3flag-eGFP (control/contralateral, left striatum) were used (n = 6; bodyweights were 260 ± 11 g). Data were assessed by dynamic small animal PET (Nanoscan, Mediso, Budapest, Hungary) in 60 min recordings, followed by T1-weighted (GRE, TR/TE = 15.0/2.4 ms, 252/252, FA = 25°) MR imaging with whole-body coils for anatomical correlation and attenuation correction.
The PET scans were performed 3−4 months after the stereotactic injections. Animals were initially anesthetized with 5% isoflurane and placed on a thermostatically heated animal bed, where anesthesia was maintained with 2% isoflurane in 60% oxygen/38% room air. […] Nonparametric (semiquantitative) analysis of achieved time–activity curves (TACs) was performed with Microsoft Excel to determine the time to peak, the TAC peak value, and the area under the curve (AUC) [drawing 1] where c (radioactivity) is expressed as the standardized uptake value normalized to the bodyweight in g (SUV). […]

[1] = male, Wistar, rat, in vivo, 60 min

T1 sequence (P34972 whole entry D80N): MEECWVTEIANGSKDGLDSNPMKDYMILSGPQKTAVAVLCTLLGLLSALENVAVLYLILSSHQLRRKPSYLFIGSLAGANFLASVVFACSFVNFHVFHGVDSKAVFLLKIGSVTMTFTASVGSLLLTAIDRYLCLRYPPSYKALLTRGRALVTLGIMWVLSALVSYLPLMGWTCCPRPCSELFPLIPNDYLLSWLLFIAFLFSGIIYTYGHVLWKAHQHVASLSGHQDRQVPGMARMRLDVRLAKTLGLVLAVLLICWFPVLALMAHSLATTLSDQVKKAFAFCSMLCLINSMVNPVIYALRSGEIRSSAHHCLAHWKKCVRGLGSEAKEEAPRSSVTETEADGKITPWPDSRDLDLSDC

- reduction of the normalized AUC between 20 and 60 min p.i. (cerebellum as reference region): 70%
- reduction of the normalized AUC between 20 and 60 min p.i. (contralateral site as reference region): 64%
- SUVr target region-to-cerebellum [1]: 20 ± 5
- SUVr target region-to-contralateral [1]: 15 ± 5
Compound: CC1(C)Cc2ccc(C#N)cc2[C@@H]1NC(=O)c1cc2cc([18F])ccc2[nH]1 [[^18F]RM365]
